Test results as given in patent US10441663B2, “Methods for treating cancer” (Bicycle Therapeutics Limited, priority 2016, dated 2019).
*1 amine or outer side, *2 acyl side, *3 side chain or, on linkers, in order; H or OH if unused. Where a SMILES comes first, the peptide text is derived from it. Bridges are numbered along the chain shown (N, C = ends). [ ]: non-standard residue; d: D form. The star is where a group is joined. X1 = COc1cc2cc(c1Cl)N(C)C(=O)C[C@H](OC(=O)[C@H](C)N(C)C(=O)CCSSC(C)CCC(=O)*)[C@]1(C)O[C@H]1[C@H](C)[C@@H]1C[C@@](O)(NC(=O)O1)[C@H](OC)/C=C/C=C(\C)C2; 1Nal = N[C@@H](Cc1cccc2ccccc12)C(=O)O; TBMB = c1c(C[*:1])cc(C[*:3])cc1C[*:2]; Tle = CC(C)(C)[C@H](N)C(=O)O; βAla = NCCC(=O)O; Sar = CNCC(=O)O

How the values were obtained:
[1] = tested on: HCT-15 xenograft; assay: In vivo efficacy of BT1718 in HCT-15 xenograft; set-up: species or system Mus Musculus
Procedure: The objective of this study was to evaluate the in vivo anti-tumor efficacy of BT1718in treatment of HT1080, NCI-H292, NCI-H1975, MDA-MB-231, HCC1806, RPMI2650, HCT-15, HT-29 and SNU-16 xenograft in BALB/c nude mice.
The HT1080, NCI-H292, NCI-H1975, MDA-MB-231, HCC1806, RPMI2650, HCT-15, HT-29 and SNU-16 tumor cells were maintained in vitro as a monolayer culture in medium supplemented with 10% heat inactivated fetal bovine serum at 37° C. in an […]. The tumor cells will be routinely subcultured twice weekly by trypsin-EDTA treatment. The cells growing in an exponential growth phase will be harvested and counted for tumor inoculation.
Mouse was inoculated subcutaneously at the right flank with tumor cells for tumor development. The animals were randomized and treatment was started when the average tumor reaches certain volume for the efficacy study, the inoculating cell amounts and starting tumor size were shown as below in Table 9. The test article administration and the animal numbers in each group were shown in the experimental design in Table 10.
All the procedures related to animal handling, care and the treatment in the study were performed according to the guidelines of the Association for Assessment and Accreditation of Laboratory Animal Care (AAALAC). At the time of routine monitoring, the animals were daily checked for any effects of tumor growth and treatments on normal behavior such as mobility, food and water consumption (by looking only), body weight gain/loss (body weights were measured every day), eye/hair matting and any other abnormal effect as stated in the protocol. Death and observed clinical signs were recorded on the basis of the numbers of animals within each subset.
The major endpoint was to see if the tumor growth could be delayed or mice could be cured. Tumor size was measured three times weekly in two dimensions using a caliper, and the volume was expressed in mm^3 using the formula: V=0.5 a×b^2 where a and b are the long and short diameters of the tumor, respectively. The tumor size was then used for calculations of T/C value. The T/C value (in percent) is an indication of antitumor effectiveness; T and C are the mean volumes of the treated and control groups, respectively, on a given day.
TGI was calculated for each group using the formula: TGI (%)=[1−(Ti−T0)/(Vi−V0)]×100; Ti is the average tumor volume of a treatment group on a given day, T0 is the average tumor volume of the treatment group on the day of treatment start, Vi is the average tumor volume of the vehicle control group on the same day with Ti, and V0 is the average tumor volume of the vehicle group on the day of treatment start.
Summary statistics, including mean and the standard error of the mean (SEM), are provided for the tumor volume of each group at each time point.
Statistical analysis of difference in tumor volume among the groups was conducted on the data obtained at the best therapeutic time point after the final dose.
A one-way ANOVA was performed to compare tumor volume among groups, and when a significant F-statistics (a ratio of treatment variance to the error variance) was obtained, comparisons between groups were carried out with Games-Howell test. All data were analyzed using Prism. P<0.05 was considered to be statistically significant.

[2] = target: MT1-MMP (Homo sapiens, UniProt P50281); assay: Fluorescence polarisation competition binding
Procedure: By means of comparison, a non-reducible BDC was prepared, BT1721, which includes a non-reducible maleimide thioether linkage which is […].

COc1cc2cc(c1Cl)N(C)C(=O)C[C@H](OC(=O)[C@H](C)N(C)C(=O)CCSSC(C)CCC(=O)NCCC(=O)N(C)CC(=O)N(C)CC(=O)N(C)CC(=O)N(C)CC(=O)N(C)CC(=O)N(C)CC(=O)N(C)CC(=O)N(C)CC(=O)N(C)CC(=O)N(C)CC(=O)N[C@@H](C)C(=O)N[C@H]1CSCc3cc4cc(c3)CSC[C@H](NC(=O)[C@@H](C)NC(=O)[C@H](Cc3cccc5ccccc35)NC(=O)[C@H](CCC(=O)O)NC(=O)[C@H](CC(N)=O)NC(=O)[C@@H](C)NC1=O)C(=O)N[C@@H](CCC(=O)O)C(=O)N[C@@H](CC(=O)O)C(=O)N[C@@H](Cc1ccccc1)C(=O)N[C@@H](Cc1ccc(O)cc1)C(=O)N[C@@H](CC(=O)O)C(=O)N[C@@H](C(C)(C)C)C(=O)N[C@H](C(N)=O)CSC4)[C@]1(C)O[C@H]1[C@H](C)[C@@H]1C[C@@](O)(NC(=O)O1)[C@H](OC)/C=C/C=C(\C)C2 (stereo partly shown) [BT1718] ({X1-βAla}-[Sar][Sar][Sar][Sar][Sar][Sar][Sar][Sar][Sar][Sar]AC[dA]NE[1Nal][dA]CEDFYD[Tle]C-NH2; linker 12-18-25 via TBMB (inferred))
Body Weight ([1]; 1 mpk biw, day 0): 22.2 ± 0.5 g
Tumor Volume ([1]; 1 mpk biw, day 0): 157 ± 6 mm^3
Body Weight ([1]; 1 mpk biw, day 2): 21.8 ± 0.3 g
Tumor Volume ([1]; 1 mpk biw, day 2): 174 ± 9 mm^3
Body Weight ([1]; 1 mpk biw, day 4): 21.6 ± 0.6 g
Tumor Volume ([1]; 1 mpk biw, day 4): 207 ± 14 mm^3
Body Weight ([1]; 1 mpk biw, day 7): 22.3 ± 0.5 g
Tumor Volume ([1]; 1 mpk biw, day 7): 385 ± 19 mm^3
Body Weight ([1]; 1 mpk biw, day 9): 21.9 ± 0.3 g
Tumor Volume ([1]; 1 mpk biw, day 9): 585 ± 26 mm^3
Body Weight ([1]; 1 mpk biw, day 11): 21.9 ± 0.5 g
Tumor Volume ([1]; 1 mpk biw, day 11): 937 ± 70 mm^3
Body Weight ([1]; 1 mpk biw, day 14): 22.1 ± 0.5 g
Tumor Volume ([1]; 1 mpk biw, day 14): 1238 ± 36 mm^3
Body Weight ([1]; 3 mpk biw, day 0): 21.6 ± 0.5 g
Tumor Volume ([1]; 3 mpk biw, day 0): 157 ± 6 mm^3
Body Weight ([1]; 3 mpk biw, day 2): 21.4 ± 0.2 g
Tumor Volume ([1]; 3 mpk biw, day 2): 140 ± 7 mm^3
Body Weight ([1]; 3 mpk biw, day 4): 21.6 ± 0.2 g
Tumor Volume ([1]; 3 mpk biw, day 4): 195 ± 26 mm^3
Body Weight ([1]; 3 mpk biw, day 7): 22.7 ± 0.4 g
Tumor Volume ([1]; 3 mpk biw, day 7): 389 ± 47 mm^3
Body Weight ([1]; 3 mpk biw, day 9): 22.2 ± 0.4 g
Tumor Volume ([1]; 3 mpk biw, day 9): 581 ± 54 mm^3
Body Weight ([1]; 3 mpk biw, day 11): 22.2 ± 0.5 g
Tumor Volume ([1]; 3 mpk biw, day 11): 901 ± 79 mm^3
Body Weight ([1]; 3 mpk biw, day 14): 22.3 ± 0.6 g
Tumor Volume ([1]; 3 mpk biw, day 14): 1180 ± 143 mm^3
Body Weight ([1]; 10 mpk biw, day 0): 22.2 ± 0.3 g
Tumor Volume ([1]; 10 mpk biw, day 0): 157 ± 11 mm^3
Body Weight ([1]; 10 mpk biw, day 2): 21.2 ± 0.2 g
Tumor Volume ([1]; 10 mpk biw, day 2): 130 ± 7 mm^3
Body Weight ([1]; 10 mpk biw, day 4): 20.2 ± 0.5 g
Tumor Volume ([1]; 10 mpk biw, day 4): 138 ± 14 mm^3
Body Weight ([1]; 10 mpk biw, day 7): 21.7 ± 0.3 g
Tumor Volume ([1]; 10 mpk biw, day 7): 265 ± 16 mm^3
Body Weight ([1]; 10 mpk biw, day 9): 19.9 ± 0.3 g
Tumor Volume ([1]; 10 mpk biw, day 9): 342 ± 47 mm^3
Body Weight ([1]; 10 mpk biw, day 11): 20.3 ± 0.7 g
Tumor Volume ([1]; 10 mpk biw, day 11): 562 ± 73 mm^3
Body Weight ([1]; 10 mpk biw, day 14): 20.8 ± 0.8 g
Tumor Volume ([1]; 10 mpk biw, day 14): 880 ± 89 mm^3
Best response at 10 mg/kg ([1]; HCT-15, 10 mg/kg): Growth delay
TGI ([1]; HCT-15, 1 mpk, biw, day 14): −0.9%
Tumor Volume ([1]; HCT-15, 1 mpk, biw, day 14): 1238 ± 36 mm^3
TGI ([1]; HCT-15, 3 mpk, biw, day 14): 4.6%
Tumor Volume ([1]; HCT-15, 3 mpk, biw, day 14): 1180 ± 143 mm^3
TGI ([1]; HCT-15, 10 mpk, biw, day 14): 32.5%
Tumor Volume ([1]; HCT-15, 10 mpk, biw, day 14): 880 ± 89 mm^3
Minimally Effective Dose IV BIW ([1]; HCT-15, dose leading to tumor-stasis): >10 mg/kg
anti-tumor activity ([1]; mouse, in vivo): did not show obvious anti-tumor activity
Ki [2]: 900 pM
